# Tested on: PKC binding to recombinant RACK1
# Experiment: Overlay / overlay-extraction assay: inhibition of PKC binding to recombinant RACK1 by peptides
# Set-up: species or system rat
# Conditions: 10 μM peptide preincubated with PKC
# Method: The variation in the overlay protocol consisted of incubating the putative binding peptides with a mixture of PKC isozymes for 15 minutes at room temperature before the mixture was used to contact the nitrocellulose strips containing immobilized RACK1.
# Nitrocellulose strips containing immobilized RACK1, that had been contacted with a solution containing a mixture of PKC isozymes, were washed and the area corresponding to the 36 kDa (RACK1-containing) band was cut out. The pieces (containing PKC/RACK1 complexes) were incubated with sample buffer for 10 minutes at 80° C. The sample buffer and the nitrocellulose pieces were then placed in wells in the PAGE gel and subjected to SDS-PAGE to elute the bound proteins. The gel was blotted onto nitrocellulose and a Western blot analysis was carried out using the mixture of antibodies (specific for PKC α, β, γ, δ, ε and ζ isozymes) described in Example 1 part B. Bound antibodies were detected by ^125I-protein A.
# Peptides derived from or homologous to WD-40 repeats of RACK1 were tested for their ability to inhibit PKC binding to recombinant RACK1. Binding of PKC to RACK1 was carried out using a variation of the overlay procedure described in Example 3 part B. In the experimental samples, peptides were incubated with a solution containing a mixture of rat brain PKC isozymes (˜10 nM each) for 15 minutes at room temperature.
# Following completion of the modified overlay protocol, the samples were subjected to the overlay-extraction protocol detailed in part B, above.
# The results in FIG. 3 show the binding of PKC to RACK1, carried out without (lane 1) or with (lanes 2-4) a preincubation of peptides with PKC. […] Peptide I caused an 81±6% inhibition of PKC binding to recombinant RACK1 as compared with binding in the absence of added peptide (n=3). Lanes 3 and 4 show PKC binding following a preincubation with 10 μM peptide rIII (SEQ ID NO:4) and 10 μM peptide rVI (SEQ ID NO:7), respectively. […] The results shown are representative of three independent experiments.
row,Substance,inhibition of PKC binding to RACK1 (in words)
1,peptide rV: synthetic peptide based on the corresponding region of RACK1 WD-40 repeat V (GYLNTVT),lesser inhibitory effect
2,rIV: synthetic peptide based on the corresponding region of RACK1 WD-40 repeat IV (VSCVRFS),lesser inhibitory effect
3,peptide rI: synthetic peptide based on the corresponding region of RACK1 WD-40 repeat I (VTQIATT),effective inhibitors

# Further lines, results first:
row,inhibition of PKC binding to RACK1 (in words),Substance
1,effective inhibitors,peptide rII: synthetic peptide based on the corresponding region of RACK1 WD-40 repeat II (FVSDVVI)
2,no inhibition,peptide rVII: synthetic peptide based on the corresponding region of RACK1 WD-40 repeat VII (PQCTSLA)

# Source: patent US6342368B1, “WD-40-derived peptides and uses thereof” (The Board of Trustees of the Leland Stanford Junior …, priority 1994, dated 2002)
